Experimental data published in patent US10125098B2, “Therapeutic compounds and methods of use thereof” (GENENTECH, INC., priority 2014, dated 2018).
Counter-ions that a name gives are not always drawn. Like-named read-outs stand apart in the source and are kept apart here.

What was measured:
human NaV1.7 = target: T1, human NaV1.7 (Homo sapiens, UniProt Q15858); assay: Patch voltage clamp electrophysiology assay (EP), NaV1.7; format: cell-based; conditions: HEK-293 cells stably expressing NaV1.7 with β1 subunit; whole-cell patch clamp, membrane potential −60 mV (inactivated state)
T1 construct: permanently transfected with an expression vector containing the full-length cDNA coding for the desired human sodium channel α-subunit; expressed in transfected cells; host or cells: HEK-293
T1 sequence (Q15858 1-1977 isoform Q15858-3): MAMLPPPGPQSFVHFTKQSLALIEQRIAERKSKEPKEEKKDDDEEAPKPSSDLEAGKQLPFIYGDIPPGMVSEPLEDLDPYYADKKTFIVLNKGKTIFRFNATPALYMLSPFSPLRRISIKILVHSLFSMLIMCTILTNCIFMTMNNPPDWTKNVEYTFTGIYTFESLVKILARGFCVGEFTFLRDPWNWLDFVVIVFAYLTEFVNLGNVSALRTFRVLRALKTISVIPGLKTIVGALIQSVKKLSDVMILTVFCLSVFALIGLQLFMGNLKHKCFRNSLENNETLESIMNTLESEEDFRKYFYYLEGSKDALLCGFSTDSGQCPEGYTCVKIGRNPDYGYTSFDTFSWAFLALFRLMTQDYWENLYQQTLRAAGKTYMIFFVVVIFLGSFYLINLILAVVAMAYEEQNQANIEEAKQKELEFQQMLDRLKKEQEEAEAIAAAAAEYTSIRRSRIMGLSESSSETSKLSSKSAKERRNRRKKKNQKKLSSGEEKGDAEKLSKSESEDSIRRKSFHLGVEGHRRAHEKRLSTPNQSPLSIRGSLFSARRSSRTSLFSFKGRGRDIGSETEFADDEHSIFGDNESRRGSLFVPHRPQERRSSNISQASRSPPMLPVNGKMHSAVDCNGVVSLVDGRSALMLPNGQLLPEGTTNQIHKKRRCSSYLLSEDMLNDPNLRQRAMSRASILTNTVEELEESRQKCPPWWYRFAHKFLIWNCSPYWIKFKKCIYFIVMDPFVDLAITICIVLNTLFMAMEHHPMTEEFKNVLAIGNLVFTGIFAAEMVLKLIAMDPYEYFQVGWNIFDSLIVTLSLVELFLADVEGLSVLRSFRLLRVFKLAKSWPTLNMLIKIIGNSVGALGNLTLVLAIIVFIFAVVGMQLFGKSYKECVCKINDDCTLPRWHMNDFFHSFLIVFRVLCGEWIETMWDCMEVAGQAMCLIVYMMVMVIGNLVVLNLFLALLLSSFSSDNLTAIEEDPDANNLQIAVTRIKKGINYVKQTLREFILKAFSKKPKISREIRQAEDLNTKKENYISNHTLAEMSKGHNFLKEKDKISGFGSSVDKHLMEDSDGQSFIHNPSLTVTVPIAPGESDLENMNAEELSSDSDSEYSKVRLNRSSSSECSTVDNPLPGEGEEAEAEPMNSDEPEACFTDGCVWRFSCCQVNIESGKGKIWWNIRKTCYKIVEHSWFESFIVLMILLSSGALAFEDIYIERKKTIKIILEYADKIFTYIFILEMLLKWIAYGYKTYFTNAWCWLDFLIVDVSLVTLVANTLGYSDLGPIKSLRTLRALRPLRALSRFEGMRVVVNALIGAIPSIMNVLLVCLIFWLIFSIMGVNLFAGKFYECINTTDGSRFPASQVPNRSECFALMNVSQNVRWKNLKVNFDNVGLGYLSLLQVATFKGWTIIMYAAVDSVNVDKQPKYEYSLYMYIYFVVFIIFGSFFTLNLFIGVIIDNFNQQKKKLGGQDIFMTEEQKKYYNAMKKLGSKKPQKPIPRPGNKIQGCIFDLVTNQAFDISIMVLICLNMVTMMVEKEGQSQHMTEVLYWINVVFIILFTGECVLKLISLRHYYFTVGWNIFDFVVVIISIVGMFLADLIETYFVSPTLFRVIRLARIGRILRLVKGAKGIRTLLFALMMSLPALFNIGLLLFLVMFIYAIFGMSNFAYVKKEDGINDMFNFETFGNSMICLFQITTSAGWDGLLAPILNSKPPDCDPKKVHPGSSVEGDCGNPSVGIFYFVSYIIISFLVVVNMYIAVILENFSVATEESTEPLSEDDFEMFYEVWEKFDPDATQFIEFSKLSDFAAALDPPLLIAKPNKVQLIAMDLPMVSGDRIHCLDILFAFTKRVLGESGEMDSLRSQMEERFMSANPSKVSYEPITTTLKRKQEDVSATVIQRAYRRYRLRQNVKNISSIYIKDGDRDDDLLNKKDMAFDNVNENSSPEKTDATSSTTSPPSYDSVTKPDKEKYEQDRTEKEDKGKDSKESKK
T1 sequence (Q07699 19-218 partner): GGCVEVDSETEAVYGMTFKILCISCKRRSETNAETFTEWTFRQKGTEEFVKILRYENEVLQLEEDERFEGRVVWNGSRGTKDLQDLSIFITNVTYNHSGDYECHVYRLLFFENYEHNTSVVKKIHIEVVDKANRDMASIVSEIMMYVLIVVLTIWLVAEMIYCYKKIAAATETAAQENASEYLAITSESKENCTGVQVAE
How it was run: (§1)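 HEK-293 cells stably expressing human α-subunit with β1; whole-cell patch clamp (PatchXpress or manual), ambient temperature, pH 7.4 external NaCl, CsF internal. Held at −60 mV (full inactivation), stepped to −150 mV for 20 ms, then test pulse; percent current decrease after compound wash-on taken as block.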

hNav1.7 = target: T2, hNav1.7 (Homo sapiens, UniProt Q15858); assay: Tritiated compound binding (LBA) to membranes from cells expressing hNav1.7 and the β1 subunit, competitive binding; conditions: competitive binding vs 100 pM [3H]compound, 18 h, room temperature, membranes with hNav1.7 and β1 subunit
T2 construct: expressed in transfected cells
T2 sequence (Q15858 1-1977 isoform Q15858-3): as the sequence (Q15858 1-1977 isoform Q15858-3) above
T2 sequence (Q07699 19-218 partner): as the sequence (Q07699 19-218 partner) above
How it was run: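 Membranes from cells expressing hNav1.7 with β1 were incubated 18 h at room temperature with 100 pM tritiated formula (I) compound and increasing test compound, in 100 mM NaCl, 20 mM Tris HCl pH 7.4, 0.01% BSA.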

NaV1.5 = target: T3, NaV1.5 (Homo sapiens, UniProt Q14524); assay: Patch voltage clamp electrophysiology assay (EP), NaV1.5; format: cell-based
T3 construct: permanently transfected with an expression vector containing the full-length cDNA coding for the desired human sodium channel α-subunit; expressed in transfected cells; host or cells: HEK-293
T3 sequence (Q14524 whole entry): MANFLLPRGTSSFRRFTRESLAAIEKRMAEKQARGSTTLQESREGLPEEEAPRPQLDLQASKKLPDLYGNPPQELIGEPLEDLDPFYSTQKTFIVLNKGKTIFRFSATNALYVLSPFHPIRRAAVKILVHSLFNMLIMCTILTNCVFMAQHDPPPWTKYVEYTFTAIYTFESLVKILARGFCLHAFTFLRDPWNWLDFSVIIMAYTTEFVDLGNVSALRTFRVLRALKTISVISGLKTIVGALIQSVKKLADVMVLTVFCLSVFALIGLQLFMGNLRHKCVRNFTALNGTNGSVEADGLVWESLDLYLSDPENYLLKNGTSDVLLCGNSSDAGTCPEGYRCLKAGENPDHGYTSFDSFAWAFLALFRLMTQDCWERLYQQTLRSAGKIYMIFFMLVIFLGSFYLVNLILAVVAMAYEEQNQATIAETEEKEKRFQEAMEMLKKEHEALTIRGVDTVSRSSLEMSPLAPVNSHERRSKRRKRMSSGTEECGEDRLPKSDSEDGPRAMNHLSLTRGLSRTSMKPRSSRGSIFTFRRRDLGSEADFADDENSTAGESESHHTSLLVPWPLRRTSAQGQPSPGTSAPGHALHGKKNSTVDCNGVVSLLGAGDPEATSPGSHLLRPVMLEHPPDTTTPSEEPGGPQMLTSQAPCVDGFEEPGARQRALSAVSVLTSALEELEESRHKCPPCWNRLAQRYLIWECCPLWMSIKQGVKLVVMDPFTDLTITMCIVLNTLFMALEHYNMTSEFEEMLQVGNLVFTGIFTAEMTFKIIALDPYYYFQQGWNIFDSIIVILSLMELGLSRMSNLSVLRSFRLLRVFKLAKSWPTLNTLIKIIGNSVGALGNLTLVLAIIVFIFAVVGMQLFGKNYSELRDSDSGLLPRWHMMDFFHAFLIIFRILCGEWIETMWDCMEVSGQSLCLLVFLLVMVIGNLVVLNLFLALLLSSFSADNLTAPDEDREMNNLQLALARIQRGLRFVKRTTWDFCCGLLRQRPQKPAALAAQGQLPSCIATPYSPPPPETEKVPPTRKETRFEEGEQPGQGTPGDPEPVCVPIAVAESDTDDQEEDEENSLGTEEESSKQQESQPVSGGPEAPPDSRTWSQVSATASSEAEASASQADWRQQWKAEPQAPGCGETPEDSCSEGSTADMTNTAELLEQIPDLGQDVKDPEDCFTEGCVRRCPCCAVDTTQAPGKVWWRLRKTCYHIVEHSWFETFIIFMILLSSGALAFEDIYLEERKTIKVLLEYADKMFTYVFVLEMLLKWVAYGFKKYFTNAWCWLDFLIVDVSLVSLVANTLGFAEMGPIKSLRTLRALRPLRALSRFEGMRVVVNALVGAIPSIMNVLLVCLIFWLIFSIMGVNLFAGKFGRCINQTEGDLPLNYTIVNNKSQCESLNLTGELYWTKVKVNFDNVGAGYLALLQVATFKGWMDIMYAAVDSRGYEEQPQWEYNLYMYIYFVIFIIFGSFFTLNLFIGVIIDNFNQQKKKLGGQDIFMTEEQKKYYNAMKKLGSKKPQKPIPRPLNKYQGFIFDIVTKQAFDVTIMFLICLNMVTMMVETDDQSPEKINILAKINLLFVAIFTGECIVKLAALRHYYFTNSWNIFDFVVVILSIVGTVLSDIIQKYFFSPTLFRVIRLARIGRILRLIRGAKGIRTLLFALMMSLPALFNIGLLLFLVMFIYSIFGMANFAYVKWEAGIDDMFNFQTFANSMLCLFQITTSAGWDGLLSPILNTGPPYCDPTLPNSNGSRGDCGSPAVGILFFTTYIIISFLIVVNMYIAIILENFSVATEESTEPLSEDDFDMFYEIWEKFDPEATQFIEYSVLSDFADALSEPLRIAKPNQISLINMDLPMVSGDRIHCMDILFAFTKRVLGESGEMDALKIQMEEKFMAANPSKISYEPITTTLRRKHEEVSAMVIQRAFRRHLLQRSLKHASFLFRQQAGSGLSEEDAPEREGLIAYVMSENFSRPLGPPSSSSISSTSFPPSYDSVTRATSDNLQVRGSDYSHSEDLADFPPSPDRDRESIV
How it was run: as §1

[1] = human, HEK-293 cells stably expressing human NaV1.5 with β1 subunit, pH 7.4, HEK-293 cells stably expressing NaV1.5 with β1 subunit, whole-cell patch clamp, membrane potential −60 mV (inactivated state)
[2] = HEK-293 cells stably expressing NaV1.5 with β1 subunit, whole-cell patch clamp, membrane potential −60 mV (inactivated state), read-out: Nav1.5

IC50 (human NaV1.7) [nM] | IC50 (hNav1.7) [nM] | Compound | IC50 (NaV1.5; [1]) [nM] | IC50 (NaV1.5; [2]) [nM] | IC50 (NaV1.5) [nM]
710 | 87 | O=C(O)[C@@H]1C[C@@H](F)CN1C(=O)c1cc(C2CC2)c(OCC2(F)CCN(Cc3ccc(F)c(Cl)c3)CC2)cc1F [Example 128, (2S,4R)-1-(4-((1-(3-chloro-4-fluorobenzyl)-4-fluoropiperidin-4-yl)methoxy)-5-cyclopropyl-2-fluorobenzoyl)-4-fluoropyrrolidine-2-carboxylic acid] | ≥ 30000 | – | –
1900 | 340 | O=C(O)[C@@H]1C[C@H]2C[C@H]2N1C(=O)c1cc(C2CC2)c(OCC23CC4CC(CC(C4)C2)C3)cc1F [Example 60, (1R, 3S, 5R)-2-(4-((adamantan-1-yl)methoxy)-5-cyclopropyl-2-fluorobenzoyl)-2-azabicyclo[3.1.0]hexane-3-carboxylic acid] | – | 13000 | –
790 | 60 | O=C(O)[C@@H]1[C@@H](F)CCN1C(=O)c1cc(C2CC2)c(OCC23CC4CC(CC(C4)C2)C3)cc1F [Example 64, (2R,3S)-1-(4-((adamantan-1-yl)methoxy)-5-cyclopropyl-2-fluorobenzoyl)-3-fluoropyrrolidine-2-carboxylic acid] | – | 8500 | –
2900 | 910 | O=C(NC(C(=O)O)C(F)(F)F)c1cc(C2CC2)c(OCC23CC4CC(CC(C4)C2)C3)cc1F (stereo not drawn) [Example 223, 2-(4-(adamantan-1-ylmethoxy)-5-cyclopropyl-2-fluorobenzamido)-3,3,3-trifluoropropanoic acid] | – | 3900 | –
830 | 59 | O=C(O)C1COCN1C(=O)c1cc(C2CC2)c(OCC23CC4CC(CC(C4)C2)C3)cc1F (stereo in doubt) [Example 154, (4R)-3-[4-(1-adamantylmethoxy)-5-cyclopropyl-2-fluoro-benzoyl]oxazolidine-4-carboxylic acid] | – | 16000 | –
11000 | 6100 | O=C(O)[C@@H]1CCCN1C(=O)c1cc(F)c(OCC23CC4CC(CC(C4)C2)C3)cc1F [Example 71, (4-(adamantan-1-ylmethoxy)-2,5-difluorobenzoyl)-L-proline] | ≥ 30000 | – | –
2100 | 260 | CC1(C)CCC(C(=O)O)N1C(=O)c1cc(C2CC2)c(OCC23CC4CC(CC(C4)C2)C3)cc1F (stereo not drawn) [Example 147, 1-[4-(1-adamantylmethoxy)-5-cyclopropyl-2-fluoro-benzoyl]-5,5-dimethyl-pyrrolidine-2-carboxylic acid] | – | 14000 | –
1800 | 410 | O=C(O)[C@@H]1CCCN1C(=O)c1cc(C2CC2)c(OCC23CCC(F)(CC2)CC3)cc1F [Example 56, (5-cyclopropyl-2-fluoro-4-((4-fluorobicyclo[2.2.2]octan-1-yl)methoxy)benzoyl)-L-proline] | ≥ 30000 | – | –
980 | 390 | O=C(O)[C@@H]1C[C@H](O)CN1C(=O)c1cc(C2CC2)c(OCC23CC4CC(CC(C4)C2)C3)cc1F [Example 161, (2S,4S)-1-[4-(1-adamantylmethoxy)-5-cyclopropyl-2-fluoro-benzoyl]-4-hydroxy-pyrrolidine-2-carboxylic acid] | ≥ 30000 | – | –

More lines, now with the values behind:

Compound | IC50 (human NaV1.7) [nM] | IC50 (hNav1.7) [nM] | IC50 (NaV1.5; [1]) [nM] | IC50 (NaV1.5; [2]) [nM] | IC50 (NaV1.5) [nM]
O=C(O)[C@@H]1CCCN1C(=O)c1cc(C2CC2)c(OCC2CCN(Cc3nc(-c4ccccc4Cl)no3)CC2)cc1F [Example 197, (S)-1-(4-((1-((3-(2-chlorophenyl)-1,2,4-oxadiazol-5-yl)methyl)piperidin-4-yl)methoxy)-5-cyclopropyl-2-fluorobenzoyl)pyrrolidine-2-carboxylic acid trifluoroacetate] | 3900 | 630 | ≥ 30000 | – | –
O=C(O)[C@@H]1CC2(CC2)CN1C(=O)c1cc(C2CC2)c(OCC2(F)CCN(Cc3cc(C(F)(F)F)ccc3Cl)CC2)cc1F [Example 221, (S)-5-(4-((1-(2-chloro-5-(trifluoromethyl)benzyl)-4-fluoropiperidin-4-yl)methoxy)-5-cyclopropyl-2-fluorobenzoyl)-5-azaspiro[2.4]heptane-6-carboxylic acid] | 1100 | 500 | – | – | 16000
C[C@@H](c1cc(Cl)cc(Cl)c1)N1CCC(COc2cc(F)c(C(=O)N3[C@@H]4C[C@@H]4C[C@H]3C(=O)O)cc2C2CC2)CC1 [Example 156, (1R,3S,5R)-4-[5-cyclopropyl-4-[[1-[(1S)-1-(3,5-dichlorophenyl)ethyl]-4-piperidyl]methoxy]-2-fluoro-benzoyl]-4-azabicyclo[3.1.0]hexane-3-carboxylic acid] | 3100 | 830 | – | 17000 | –
O=C(O)[C@@H]1CCCN1C(=O)c1cc(C2CC2)c(OC2CCN(Cc3cc(Cl)cc(Cl)c3)CC2)cc1F [Example 112, (S)-1-(5-cyclopropyl-4-(1-(3,5-dichlorobenzyl)piperidin-4-yloxy)-2-fluorobenzoyl)pyrrolidine-2-carboxylic acid] | 2000 | 520 | ≥ 30000 | – | –
O=C(O)[C@@H]1C[C@@H](F)CN1C(=O)c1cc(C2CC2)c(OCC2CCN([C@H](c3cc(Cl)cc(Cl)c3)C(F)(F)F)CC2)cc1F (single isomer, unassigned) [Example 140a] | 170 | 14 | – | 2700 | –
CC(C)[C@H](NC(=O)c1cc(C2CC2)c(OCC2(F)CCN(Cc3cc(Cl)cc(C(F)(F)F)c3)CC2)cc1F)C(=O)O [Example 216, (4-((1-(3-Chloro-5-(trifluoromethyl)benzyl)-4-fluoropiperidin-4-yl)methoxy)-5-cyclopropyl-2-fluorobenzoyl)-L-valine] | 8600 | 600 | ≥ 30000 | – | –
CC(C)COc1ncc(Oc2cc(F)c(C(=O)N3CCC[C@H]3C(=O)O)cc2Cl)cc1Cl [Example 97, 5-chloro-4-((5-chloro-6-isobutoxypyridin-3-yl)oxy)-2-fluorobenzoyl)-L-proline trifluoroacetic acid salt] | 570 | 440 | ≥ 30000 | – | –
O=C(O)[C@@H]1CCCN1C(=O)c1cc(C2CC2)c(OC[C@@H]2CCN(C(c3ccccc3)c3ccccc3)C2)cc1F (single isomer, unassigned) [Example 139b] | 7100 | 800 | – | 22000 | –
CC1(COc2cc(F)c(C(=O)N[C@H](C(=O)O)C3CC3)cc2C2CC2)CN([C@H](c2ccccc2)c2cc(Cl)cc(Cl)c2)C1 (single isomer, unassigned) [Example 113] | 610 | 7.6 | – | 15000 | –
CC1[C@H](O)CN(C(=O)c2cc(C3CC3)c(OCC3(F)CCN([C@@H](C)c4cc(Cl)cc(Cl)c4)CC3)cc2F)[C@@H]1C(=O)O (stereo partly drawn) [Example 208, (2S,4S)-1-(5-Cyclopropyl-4-((1-((S)-1-(3,5-dichlorophenyl)ethyl)-4-fluoropiperidin-4-yl)methoxy)-2-fluorobenzoyl)-4-hydroxy-3-methylpyrrolidine-2-carboxylic acid] | 210 | 82 | – | 16000 | –
O=C(O)[C@@H]1C[C@@H](F)CN1C(=O)c1cc(C2CC2)c(OCC2CCN(Cc3cc(Cl)cc(OC(F)(F)F)c3)CC2)cc1F [Example 105, (2S,4R)-1-(4-((1-(3-chloro-5-(trifluoromethoxy)benzyl)piperidin-4-yl)methoxy)-5-cyclopropyl-2-fluorobenzoyl)-4-fluoropyrrolidine-2-carboxylic acid] | 220 | 37 | – | 22000 | –
